Reference: patent US20240197828A1, “Chimeric molecule to treat sepsis and other inflammatory conditions” (THE FEINSTEIN INSTITUTES FOR MEDICAL RESEARCH, priority 2022, published 2024)
Entries after “also recorded” stand apart in the source; their conditions may differ. Residues, ends and D or L forms follow the SMILES beside them.

Columns and labels:
[1] = system: RAW264.7 cells; assay: eCIRP-induced cytokine release in RAW264.7 cells (ELISA of supernatants); type: cell-based, mouse; settings: RAW264.7, rmCIRP 1 μg/mL, 4 hours, vs rmCIRP alone
Protocol: FIG. 2. Effects of MOP peptides on TNFα levels. RAW264.7 macrophages were cultured and treated with either volume-equivalent PBS, recombinant murine (rm) CIRP (eCIRP; 1 μg/mL), or rmCIRP with each respective peptide (10 μg/mL). After 4 hours, cell supernatants were assessed for TNFα levels by ELISA. Experiments were performed 3 times, and all data were used for analysis. Data are expressed as mean±SEM and compared by one-way ANOVA and SNK test. *p<0.05 vs. PBS, #p<0.05 vs. eCIRP.
FIG. 4. eCIRP-induced inflammation is attenuated by MOP3. RAW264.7 cells were treated according to respective groups: PBS (volume equivalent), rmCIRP (1 μg/mL), or rmCIRP with MOP3 at increasing doses. After 4 hours, cell supernatants were analyzed for TNFα levels by ELISA. Experiments were performed 3 times, and all data were used for analysis. Data are expressed as mean #SEM and compared by one-way ANOVA and SNK test. *p<0.05 vs. PBS, #p<0.05 vs. eCIRP.
Computational modeling was used to determine the likely domain of MFG-E8's binding to eCIRP. The known amino acid (AA) sequence of this domain was used to develop and test potential therapeutic peptides. An MFG-E8 derived oligopeptide, MOP3, was developed based on 15 AA from MFG-E8 discoidin 2 domain (mimicking MFG-E8's C-terminal) and tagged with the 3 AA, RGD, (mimicking MFG-E8's binding capacity for the integrin receptor at the N-terminal). Binding of MOP3 to CIRP was quantified using Surface Plasmon Resonance (SPR) analysis. Macrophages (RAW264.7 cells) were treated with FITC-recombinant mouse (rm)-CIRP or co-incubated MOP3 and FITC-rmCIRP with and without a. Br-integrin Ab. After 1 h, cells were fixed and analyzed for intracellular FITC-rmCIRP by flow cytometry. Macrophages were stimulated with rmCIRP or co-incubated mixture of MOP3 and rmCIRP. After 4 h, cell culture supernatants were analyzed for inflammatory cytokine, TNFα.
Mouse macrophage cell line, RAW264.7 cells were obtained from American Type Culture Collection (ATCC) and cultured in DMEM media with 10% FBS, 1% penicillin and streptomycin, and 1% glutamine. Cells were kept in 37° C. incubator under humidified conditions containing 5% CO2. […]
The mouse macrophage cell culture supernatants were analyzed for cytokine levels using ELISA kits (BD Biosciences, CA). […] TNF-α and IL-6 levels were measured in cell supernatants by ELISA in accordance with respective manufacturers' instructions (BD Biosciences, CA). Blood was collected, centrifuged at 4,000 RPM for 10 minutes, and sera was separated and analyzed for cytokine levels using ELISA kits (BD Biosciences, CA). TNF-α and IL-6 levels in the serum were measured by ELISA in accordance with respective manufacturers' instructions.

[2] = system: WT mice; assay: CLP-induced sepsis, 10-day survival; type: in vivo, mouse
Protocol: FIG. 6A-6M: MOP3 ameliorates inflammation, lung injury, and improves survival in sepsis. WT mice subjected to CLP-induced sepsis with MOP3 treatment (10 μg/kg) or vehicle (volume-equivalent). After 20 hours, blood and lung tissue collected for respective analyses. (A-C) Serum was analyzed for systemic eCIRP, IL-6, and TNFα levels by ELISA. (D-F) Serum was analyzed for ALT, AST, and LDH by calorimetric assays. (G-I) Lung tissue was frozen and mRNA expression of IL-6, TNFα, and IL-1β was measured by PCR and MPO by calorimetric assay. (J) Lung tissue was frozen and analyzed for MPO levels by calorimetric assay. (K) Lungs were sectioned, imaged for histologic injury by H&E staining, and performed lung injury scoring. (L) Sectioned lungs were stained for TUNEL positive cells and cell counts were quantified. […] Data are expressed as mean±SEM and compared by one-way ANOVA and SNK test. *p<0.05 vs. sham, #p<0.05 vs. CLP vehicle. (M) WT mice subjected to CLP-induced sepsis with MOP3 treatment (10 μg/kg) or vehicle (volume equivalent) and monitored for 10 days for humane endpoints, and differences in survival were determined (N=17 per group). *p<0.05 vs. CLP vehicle. […]
Data represented in the figures are expressed as mean±SEM. […] Survival rates were analyzed by the Kaplan-Meier estimator and compared using a log-rank test. Significant differences between groups were determined by Tukey's method. […]

## CC(C)C[C@H](NC(=O)[C@H](CC(N)=O)NC(=O)[C@H](Cc1c[nH]c2ccccc12)NC(=O)[C@@H](NC(=O)[C@H](CCCCN)NC(=O)[C@H](Cc1ccc(O)cc1)NC(=O)[C@H](CO)NC(=O)[C@H](CO)NC(=O)[C@H](CO)NC(=O)[C@H](CC(=O)O)NC(=O)CNC(=O)[C@@H](N)CCCNC(=N)N)[C@@H](C)O)C(=O)N[C@@H](CCCNC(=N)N)C(=O)N[C@@H](C)C(=O)N[C@@H](Cc1ccccc1)C(=O)NCC(=O)N[C@@H](Cc1c[nH]c2ccccc12)C(=O)N[C@@H](Cc1ccc(O)cc1)C(=O)O [MOP3, RGDSSSYKTWNLRAFGWY] (H-RGDSSSYKTWNLRAFGWY-OH; N-terminus and C-terminus assumed)
[1]
  TNFα levels in cell supernatants: strong inhibitory effect; also recorded: significantly decreased TNFα levels
[1]; listed as peptide-3
  TNFα levels in cell supernatants: capable of attenuating TNFα release
[2]; CLP, one-time MOP3 dose, monitored 10 days, N=17 per group
  mortality: 17.6%
[2]; septic mice, no off-target, pharmacokinetic or toxicity studies performed
  observed phenotypic effects: lack of observed phenotypic effects
